In paper PMC11612144, “Deep quantification of substrate turnover defines protease subsite cooperativity” (Molecular Systems Biology, 2024):
No end group written: not given here.

Key:
[1] = target: C. elegans DPF-3 (DPP8/9-orthologue), full-length, recombinant (C. elegans); experiment: cryo-EM structure; single particle cryo-EM of full-length DPF-3 alone (apo), ~0.3 mg/ml and 2.5% glycerol, grids blotted at 4 °C; homodimer
hDPP4 = target: T1, hDPP4 (Homo sapiens, UniProt P27487); experiment: In vitro protease assay by mass spectrometry: cleavage of synthetic GLP-1 N-terminal peptides by hDPP4 over time; type: in vitro ADME; conditions: hDPP4 1 µg in 100 µl, peptide 1 pmol/µl, 21 °C, LC-MS, Fig. 4A; for product formation upon digestion with hDPP4 (in words): 30-120 min, three technical replicates
T1 construct: purchased Abcam ab79138
Method: Synthetic peptides representing either wild-type or mutated GLP-1 were purchased from Thermo Fisher Scientific and their cleavage by DPP4 was measured over time. Briefly, the lyophilized peptides were dissolved in TBS buffer supplemented with 2 mM TCEP to obtain a stock solution with a final concentration of 0.1 nmol/µl. 1ug of DPP4 and each peptide at a final concentration of 1 pmol/µl were used in reactions at a final volume of 100 µl. To distinguish the products, the four peptides were pooled into two groups. One group contained GLP-1 wt (HAE ([…])) & GLP-1 H1D, E3P (DAP ([…])) and the other group GLP-1 H1D (DAE ([…])) & GLP-1 E3P (HAP ([…])). The assay was performed at 21 °C, aliquots (20 µl) were taken out at the indicated times and mixed with 180 µl of 0.1% trifluoroacetic acid, 2 mM TCEP, 2% acetonitrile in water to stop the reaction.
The peptides were analyzed by capillary liquid chromatography tandem mass spectrometry (LC-MS) using an Orbitrap Fusion LUMOS, a VanquishNeo-nLC, and a 75umx15cm EasyC18 column kept at 45 °C and mounted on a easy source (Thermo Fisher Scientific). Peptides were loaded on a 0.3 × 5 mm C18 trap using a back flash method for elution. Peptides were separated with a gradient of 0–0.2 min 2–6%B in A, 0.2–4.2 min 6–21%, 4.2–6.2 min 21–30%, 6.2–6.7 min 30–36%, 6.7–7.2 min 36–45%, 7.2–7.5 min 45%-100%, 7.5-12 min 100%. A: 0.1% FA in H2O; B: 0.1% FA, 80% MeCN in H2O, at room temperature and the flow rate during the gradient was 200 nl/min and for the last 4.4 min 350 nl/min. The data were acquired using 120,000 resolution for the peptide measurements in the Orbitrap and a top T (1.5 s) method with HCD fragmentation for each precursor and fragment measurement in the ion trap following the manufacturer guidelines (Thermo Scientific).

GLP-1 receptor = conditions: compared with GLP-1(7-37); ref Mentlein et al, 1993; Muller et al, 2019; cited from earlier work
From the text: To achieve clinical utility, GLP ...

T1 sequence (P27487 whole entry): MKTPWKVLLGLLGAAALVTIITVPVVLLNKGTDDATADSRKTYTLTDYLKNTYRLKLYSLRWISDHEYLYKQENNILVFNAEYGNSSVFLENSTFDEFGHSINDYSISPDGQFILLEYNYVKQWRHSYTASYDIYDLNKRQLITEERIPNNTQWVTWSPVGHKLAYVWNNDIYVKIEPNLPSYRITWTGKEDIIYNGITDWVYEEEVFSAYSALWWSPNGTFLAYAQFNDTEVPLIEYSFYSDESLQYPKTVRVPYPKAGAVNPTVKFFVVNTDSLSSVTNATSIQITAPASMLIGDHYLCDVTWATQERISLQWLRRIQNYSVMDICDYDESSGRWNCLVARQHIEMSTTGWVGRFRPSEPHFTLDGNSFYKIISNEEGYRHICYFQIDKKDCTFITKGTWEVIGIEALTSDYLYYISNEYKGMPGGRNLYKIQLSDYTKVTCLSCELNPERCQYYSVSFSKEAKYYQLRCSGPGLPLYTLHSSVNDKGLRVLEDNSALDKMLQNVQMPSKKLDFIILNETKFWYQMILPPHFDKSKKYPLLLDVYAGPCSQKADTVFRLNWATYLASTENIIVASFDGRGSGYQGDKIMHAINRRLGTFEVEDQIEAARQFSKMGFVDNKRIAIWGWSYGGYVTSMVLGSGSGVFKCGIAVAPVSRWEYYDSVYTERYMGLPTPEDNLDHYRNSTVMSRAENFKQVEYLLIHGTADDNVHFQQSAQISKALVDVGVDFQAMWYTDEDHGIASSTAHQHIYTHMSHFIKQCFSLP

C. elegans DPF-3 (DPP8/9-orthologue), full-length, recombinant (enzyme)
stoichiometry N [1]: 2

DAEGTFTSDVSR [DAE]
product formation upon digestion with hDPP4 (in words) (hDPP4): greatly decreased product levels at all time points and continued product accumulation over 120 min

DAPGTFTSDVSR [DAP]
product formation upon digestion with hDPP4 (in words) (hDPP4): completely abrogated product formation

GLP-1(9-37): DPP4-processed GLP-1 peptide (EGTFTSDVSSYLEGQAAKEFIAWLVKGRG; Glucagon-like peptide 1; UniProt P01275 100-128, looked up, fragment)
affinity to its receptor (in words) (GLP-1 receptor): reduced affinity

HAEGTFTSDVSR [HAE, reference compound]
time within which product formation was essentially complete (hDPP4): ≤ 30 min

HAPGTFTSDVSR [HAP]
product formation upon digestion with hDPP4 (in words) (hDPP4): completely abrogated product formation
